# Laboratory results from US12378224B2 (Dong-A Socio Holdings Co., Ltd., priority 2016, dated 2025).
# Target: human MER (528-end) (Homo sapiens (Human), UniProt Q12866)
# Test: HTRF Kinase Activity Biochemical Assay (KinEASE-TK)
# Details: 10 uM ATP
# How it was run: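 Recombinant human MER (528-end) phosphorylated biotin-TK peptide substrate, 1 h at room temperature. Reaction stopped with detection buffer containing 0.375 nM Eu3+-cryptate anti-TK antibody and 0.062 uM streptavidin-XL665, 1 h further. Activity taken as HTRF ratio 665/620 nm ×10,000, 340 nm excitation.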
# Chain of human MER (528-end) (Q12866 528-999 limits assumed): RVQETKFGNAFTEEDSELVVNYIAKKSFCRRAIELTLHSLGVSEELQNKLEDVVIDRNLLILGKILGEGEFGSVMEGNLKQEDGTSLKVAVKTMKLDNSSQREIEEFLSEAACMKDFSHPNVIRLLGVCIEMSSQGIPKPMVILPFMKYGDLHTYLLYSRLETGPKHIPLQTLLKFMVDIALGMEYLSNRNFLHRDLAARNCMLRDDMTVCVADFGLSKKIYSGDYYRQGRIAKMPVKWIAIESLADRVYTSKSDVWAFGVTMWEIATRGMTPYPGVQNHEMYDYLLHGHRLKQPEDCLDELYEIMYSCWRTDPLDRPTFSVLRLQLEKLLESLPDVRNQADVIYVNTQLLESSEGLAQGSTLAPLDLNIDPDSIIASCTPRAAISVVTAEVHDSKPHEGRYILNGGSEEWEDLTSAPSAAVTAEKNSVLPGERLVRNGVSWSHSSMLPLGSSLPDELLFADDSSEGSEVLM
row,Compound,IC50 [nM]
1,"Cc1ccc(CN2CC[C@@H](NC(=O)c3cc(-c4cnn(C)c4)cnc3N)C2)cc1C [Example 214, (R)-2-amino-N-(1-(3,4-dimethylbenzyl)pyrrolidin-3-yl)-5-(1-methyl-1H-pyrazol-4-yl)nicotinamide]",> 1000
2,"COc1cc(CN2CC[C@@H](NC(=O)c3cc(-c4cnn(C)c4)cnc3N)C2)cc(OC)c1 [Example 216, (R)-2-amino-N-(1-(3,5-dimethoxybenzyl)pyrrolidin-3-yl)-5-(1-methyl-1H-pyrazol-4-yl)nicotinamide]",> 1000
3,"COc1ccc(OC)c(CN2CC[C@@H](NC(=O)c3cc(-c4cnn(C)c4)cnc3N)C2)c1 [Example 218, (R)-2-amino-N-(1-(2,5-dimethoxybenzyl)pyrrolidin-3-yl)-5-(1-methyl-1H-pyrazol-4-yl)nicotinamide]",> 1000
4,"COc1ccc(O)c(CN2CC[C@@H](NC(=O)c3cc(-c4cnn(C)c4)cnc3N)C2)c1 [Example 219, (R)-2-amino-N-(1-(2-hydroxy-5-methoxybenzyl)pyrrolidin-3-yl)-5-(1-methyl-1H-pyrazol-4-yl)nicotinamide]",> 1000
5,"COc1ccc(CN2CC[C@@H](NC(=O)c3cc(-c4cnn(C)c4)cnc3N)C2)c(OC)c1 [Example 220, (R)-2-amino-N-(1-(2,4-dimethoxybenzyl)pyrrolidin-3-yl)-5-(1-methyl-1H-pyrazol-4-yl)nicotinamide]",> 1000
6,"Cn1cc(-c2cnc(N)c(C(=O)N[C@@H]3CCN(Cc4cc(Cl)cc(Cl)c4)C3)c2)cn1 [Example 224, (R)-2-amino-N-(1-(3,5-dichlorobenzyl)pyrrolidin-3-yl)-5-(1-methyl-1H-pyrazol-4-yl)nicotinamide]",> 1000
7,"Cn1cc(-c2cnc(N)c(C(=O)N[C@@H]3CCN(Cc4ccccc4-c4ccccc4)C3)c2)cn1 [Example 225, (R)—N-(1-([1,1′-biphenyl]-2-ylmethyl)pyrrolidin-3-yl)-2-amino-5-(1-methyl-1H-pyrazol-4-yl)nicotinamide]",100 to 1000
8,"Cn1cc(-c2cnc(N)c(C(=O)N[C@@H]3CCN(Cc4ccc(-c5ccccc5)cc4)C3)c2)cn1 [Example 226, (R)—N-(1-([1,1′-biphenyl]-4-ylmethyl)pyrrolidin-3-yl)-2-amino-5-(1-methyl-1H-pyrazol-4-yl)nicotinamide]",> 1000
9,"Cn1cc(-c2cnc(N)c(C(=O)N[C@@H]3CCN(CCCc4ccccc4)C3)c2)cn1 [Example 227, (R)-2-amino-5-(1-methyl-1H-pyrazol-4-yl)-N-(1-(3-phenylpropyl)pyrrolidin-3-yl)nicotinamide]",> 1000
10,"Cn1cc(-c2cnc(N)c(C(=O)N[C@@H]3CCN(CC=Cc4ccccc4)C3)c2)cn1 [Example 228, (R)-2-amino-N-(1-cinnamylpyrrolidin-3-yl)-5-(1-methyl-1H-pyrazol-4-yl)nicotinamide]",100 to 1000
11,"Cn1cc(-c2cnc(N)c(C(=O)N[C@@H]3CCN(CCOCc4ccccc4)C3)c2)cn1 [Example 229, (R)-2-amino-N-(1-(2-(benzyloxy)ethyl)pyrrolidin-3-yl)-5-(1-methyl-1H-pyrazol-4-yl)nicotinamide]",> 1000
12,"Cn1cc(-c2cnc(N)c(C(=O)N[C@@H]3CCN(CCc4ccccc4)C3)c2)cn1 [Example 230, (R)-2-amino-5-(1-methyl-1H-pyrazol-4-yl)-N-(1-phenethylpyrrolidin-3-yl)nicotinamide]",> 1000
13,"Cn1cc(-c2cnc(N)c(C(=O)N[C@@H]3CCN(Cc4cccc(Br)c4)C3)c2)cn1 [Example 231, (R)-2-amino-N-(1-(3-bromobenzyl)pyrrolidin-3-yl)-5-(1-methyl-1H-pyrazol-4-yl)nicotinamide]",> 1000
14,"Cn1cc(-c2cnc(N)c(C(=O)N[C@@H]3CCN(Cc4ccccc4Br)C3)c2)cn1 [Example 232, (R)-2-amino-N-(1-(2-bromobenzyl)pyrrolidin-3-yl)-5-(1-methyl-1H-pyrazol-4-yl)nicotinamide]",100 to 1000
15,"Cn1cc(-c2cnc(N)c(C(=O)N[C@@H]3CCN(Cc4ccc(F)c(Br)c4)C3)c2)cn1 [Example 233, (R)-2-amino-N-(1-(3-bromo-4-fluorobenzyl)pyrrolidin-3-yl)-5-(1-methyl-1H-pyrazol-4-yl)nicotinamide]",> 1000
16,"Nc1ncc(-c2ccc(CO)cc2)cc1C(=O)N[C@@H]1CCN(Cc2ccc(Cl)cc2)C1 [Example 237, (R)-2-amino-N-(1-(4-chlorobenzyl)pyrrolidin-3-yl)-5-(4-(hydroxymethyl)phenyl)nicotinamide]",100 to 1000

row,Compound,IC50 [nM]
1,"Cn1cc(-c2cnc(N)c(C(=O)N[C@@H]3CCN(Cc4cccc(-c5cccc(CO)c5)c4)C3)c2)cn1 [Example 243, (R)-2-amino-N-(1-((3′-(hydroxymethyl)-[1,1′-biphenyl]-3-yl)methyl)pyrrolidin-3-yl)-5-(1-methyl-1H-pyrazol-4-yl)nicotinamide]",100 to 1000
2,"Cn1cc(-c2cnc(N)c(C(=O)N[C@@H]3CCN(Cc4cccc(-c5ccc(CO)cc5)c4)C3)c2)cn1 [Example 244, (R)-2-amino-N-(1-((4′-(hydroxymethyl)-[1,1′-biphenyl]-3-yl)methyl)pyrrolidin-3-yl)-5-(1-methyl-1H-pyrazol-4-yl)nicotinamide]",100 to 1000
3,"CN1CCN(Cc2cccc(-c3cccc(CN4CC[C@@H](NC(=O)c5cc(-c6cnn(C)c6)cnc5N)C4)c3)c2)CC1 [Example 245, (R)-2-amino-5-(1-methyl-1H-pyrazol-4-yl)-N-(1-((3′-((4-methylpiperazin-1-yl)methyl)-[1,1′-biphenyl]-3-yl)methyl)pyrrolidin-3-yl)nicotinamide]",> 1000
4,"CN1CCN(Cc2ccc(-c3cccc(CN4CC[C@@H](NC(=O)c5cc(-c6cnn(C)c6)cnc5N)C4)c3)cc2)CC1 [Example 246, (R)-2-amino-5-(1-methyl-1H-pyrazol-4-yl)-N-(1-((4′-((4-methylpiperazin-1-yl)methyl)-[1,1′-biphenyl]-3-yl)methyl)pyrrolidin-3-yl)nicotinamide]",> 1000
5,"Cn1cc(-c2cnc(N)c(C(=O)N[C@@H]3CCN(Cc4ccc(F)c(-c5cccc(CO)c5)c4)C3)c2)cn1 [Example 250, (R)-2-amino-N-(1-((6-fluoro-3′-(hydroxymethyl)-[1,1′-biphenyl]-3-yl)methyl)pyrrolidin-3-yl)-5-(1-methyl-1H-pyrazol-4-yl)nicotinamide]",100 to 1000
6,"Cn1cc(-c2cnc(N)c(C(=O)N[C@@H]3CCN(C(=O)Nc4cccc(-c5cccc(CN)c5)c4)C3)c2)cn1 [Example 254, (R)-2-amino-N-(1-((3′-(aminomethyl)-[1,1′-biphenyl]-3-yl)carbamoyl)pyrrolidin-3-yl)-5-(1-methyl-1H-pyrazol-4-yl)nicotinamide]",10 to 100
7,"Cn1cc(-c2cnc(N)c(C(=O)N[C@@H]3CCN(C(=O)Nc4cccc(-c5ccc(CN)cc5)c4)C3)c2)cn1 [Example 255, (R)-2-amino-N-(1-((4′-(aminomethyl)-[1,1′-biphenyl]-3-yl)carbamoyl)pyrrolidin-3-yl)-5-(1-methyl-1H-pyrazol-4-yl)nicotinamide]",100 to 1000
8,"Nc1ncc(-c2ccc(CO)cc2)cc1C(=O)N[C@@H]1CCN(C(=O)Nc2cccc(-c3ccccc3)c2)C1 [Example 256, (R)—N-(1-([1,1′-biphenyl]-3-ylcarbamoyl)pyrrolidin-3-yl)-2-amino-5-(4-(hydroxymethyl)phenyl)nicotinamide]",100 to 1000
9,"Cn1cc(-c2cnc(N)c(C(=O)N[C@@H]3CCN(C(=O)Nc4cccc(-c5cccc(N)c5)c4)C3)c2)cn1 [Example 257, (R)-2-amino-N-(1-((3′-amino-[1,1′-biphenyl]-3-yl)carbamoyl)pyrrolidin-3-yl)-5-(1-methyl-1H-pyrazol-4-yl)nicotinamide]",100 to 1000
10,"Cn1cc(-c2cnc(N)c(C(=O)N[C@@H]3CCN(C(=O)Nc4cccc(-c5ccc(N)cc5)c4)C3)c2)cn1 [Example 258, (R)-2-amino-N-(1-((4′-amino-[1,1′-biphenyl]-3-yl)carbamoyl)pyrrolidin-3-yl)-5-(1-methyl-1H-pyrazol-4-yl)nicotinamide]",100 to 1000
11,"Cn1cc(-c2cnc(N)c(C(=O)N[C@@H]3CCN(C(=O)Nc4cccc(-c5ccc(CO)cc5)c4)C3)c2)cn1 [Example 259, (R)-2-amino-N-(1-((4′-(hydroxymethyl)-[1,1′-biphenyl]-3-yl)carbamoyl)pyrrolidin-3-yl)-5-(1-methyl-1H-pyrazol-4-yl)nicotinamide]",100 to 1000
12,"Cn1cc(-c2cnc(N)c(C(=O)N[C@@H]3CCN(C(=O)Nc4cccc(-c5cnn(C6CCNCC6)c5)c4)C3)c2)cn1 [Example 260, (R)-2-amino-5-(1-methyl-1H-pyrazol-4-yl)-N-(1-((3-(1-(piperidin-4-yl)-1H-pyrazol-4-yl)phenyl)carbamoyl)pyrrolidin-3-yl)nicotinamide]",> 1000
13,"Cn1cc(-c2cnc(N)c(C(=O)N[C@@H]3CCN(C(=O)Nc4cccc(-c5ccc(N6CCNCC6)nc5)c4)C3)c2)cn1 [Example 261, (R)-2-amino-5-(1-methyl-1H-pyrazol-4-yl)-N-(1-((3-(6-(piperazin-1-yl)pyridin-3-yl)phenyl)carbamoyl)pyrrolidin-3-yl)nicotinamide]",100 to 1000
14,"CNc1ccc(-c2cccc(NC(=O)N3CC[C@@H](NC(=O)c4cc(-c5cnn(C)c5)cnc4N)C3)c2)cc1 [Example 262, (R)-2-amino-5-(1-methyl-1H-pyrazol-4-yl)-N-(1-((4′-(methylamino)-[1,1′-biphenyl]-3-yl)carbamoyl)pyrrolidin-3-yl)nicotinamide]",100 to 1000
15,"Cn1cc(-c2cnc(N)c(C(=O)N[C@@H]3CCN(C(=O)Nc4cccc(-c5cccc(CO)c5)c4)C3)c2)cn1 [Example 264, (R)-2-amino-N-(1-((3′-(hydroxymethyl)-[1,1′-biphenyl]-3-yl)carbamoyl)pyrrolidin-3-yl)-5-(1-methyl-1H-pyrazol-4-yl)nicotinamide]",100 to 1000
16,"CN(C)Cc1cccc(-c2cccc(NC(=O)N3CC[C@@H](NC(=O)c4cc(-c5cnn(C)c5)cnc4N)C3)c2)c1 [Example 265, (R)-2-amino-N-(1-((3′-((dimethylamino)methyl)-[1,1′-biphenyl]-3-yl)carbamoyl)pyrrolidin-3-yl)-5-(1-methyl-1H-pyrazol-4-yl)nicotinamide]",10 to 100
